Results from the CheMixHub viscosity set.

Assay: xn = mol fraction of the nth substance listed

C=CC(=O)OC(C)(C)C + CC#N
viscosity [mPa·s], 100 kPa
Settings | 293.15 K | 298.15 K | 303.15 K | 308.15 K | 313.15 K | 318.15 K
x2 = 0.0772 | 0.8592 | 0.787 | 0.72 | 0.664 | 0.6141 | 0.571
x2 = 0.1496 | 0.8154 | 0.7472 | 0.684 | 0.631 | 0.5837 | 0.5427
x2 = 0.2216 | 0.7728 | 0.7087 | 0.6493 | 0.5994 | 0.5548 | 0.5161
x2 = 0.2983 | 0.7282 | 0.6684 | 0.6132 | 0.5668 | 0.5252 | 0.489
x2 = 0.3643 | 0.6903 | 0.6344 | 0.5828 | 0.5393 | 0.5003 | 0.4663
x2 = 0.4345 | 0.6506 | 0.5988 | 0.5511 | 0.5107 | 0.4745 | 0.4426
x2 = 0.5074 | 0.61 | 0.5624 | 0.5187 | 0.4816 | 0.4481 | 0.4186
x2 = 0.5769 | 0.5719 | 0.5284 | 0.4885 | 0.4544 | 0.4236 | 0.3963
x2 = 0.6465 | 0.5345 | 0.495 | 0.459 | 0.4278 | 0.3997 | 0.3746
x2 = 0.7141 | 0.4991 | 0.4635 | 0.4312 | 0.403 | 0.3775 | 0.3546
x2 = 0.7821 | 0.4645 | 0.4329 | 0.4044 | 0.3793 | 0.3565 | 0.3358
x2 = 0.8603 | 0.4264 | 0.3994 | 0.3753 | 0.354 | 0.3344 | 0.3164
x2 = 0.9345 | 0.3923 | 0.3699 | 0.3502 | 0.3324 | 0.3162 | 0.301

CCCCOCCO + CCCCCC
viscosity [mPa·s], 101 kPa
Settings | 303.15 K | 313.15 K
x1 = 0.0327 | 0.292 | 0.258
x1 = 0.1014 | 0.354 | 0.31
x1 = 0.1974 | 0.456 | 0.396
x1 = 0.2974 | 0.587 | 0.506
x1 = 0.395 | 0.741 | 0.634
x1 = 0.4968 | 0.93 | 0.787
x1 = 0.5957 | 1.148 | 0.956
x1 = 0.7323 | 1.507 | 1.23
x1 = 0.8316 | 1.793 | 1.458
x1 = 0.8992 | 2.025 | 1.634
x1 = 0.9658 | 2.271 | 1.79
